# Results as given in patent US20080181928A1, “COATINGS FOR IMPLANTABLE MEDICAL DEVICES FOR LIPOSOME DELIVERY” (MIV Therapeutics, Inc., priority 2006, published 2008).
# Legend:
# THP-1 cells = experiment: THP-1 cell growth in presence of ZA lipid coated stents or molecular ZA (Examples 6 and 7); type: cell-based; conditions: Homo sapiens, THP-1, 96 h, 4 days of culture
# Experimental: To monitor cell growth in the presence of liposomes containing ZA, 5×10^5 THP-1 cells are plated into 24—well cluster plates (Corning Inc.) in complete RPMI-1640 medium at 1 mL volume. About 3-4 hours later, the lipid coated stents of Example 5 are added into the THP-1 cell culture (5×10^5 cells/mL). The cells in the presence of medium alone or treated with empty liposomes (no drug) served as a control. ZA in molecular form was added for comparison at a concentration of 5 and 1 μg/mL. After 4 days of culture, the cells in each culture were harvested and counted using a hemocytometer; viability was evaluated by trypan blue exclusion method.
# The two sets of samples were placed in cell cultures containing THP-1 macrophage type cells. HAp coated stents impregnated with molecular ZA (configuration B) are placed in 2 ml PBS dissolution media and rotated at a speed of 20 rpm at 37.2° C. Samples are taken at various time intervals and analyzed using HPLC.
# [1] = test system: THP-1 (Human Monocytic Leukemia) cell culture; experiment: THP-1 cell growth inhibition by ZA released from lipid bilayer stent coating (Example 16); type: cell-based; conditions: THP-1, 96 h, 4 days
# Experimental: Hydroxyapatite coated stents were further coated with the lipid film in a manner similar to that described in Examples 12 and 13, except that the film contained 2 μg of zoledronic acid (ZA). The stents were added to THP-1 (Human Monocytic Leukemia) cell culture (5×10^5 cells/mL) and compared to ZA alone added at concentration of 5 and 1 μg/mL. After 4 days, the cells in each culture were harvested and counted.
compound,measurement,setting,value
"O=P(O)(O)C(O)(Cn1ccnc1)P(=O)(O)O [ZA, zoledronic acid]",inhibition at 1 µg/mL,THP-1 cells; 1 μg/mL,0.6%
same,inhibition at 5 µg/mL,THP-1 cells; 5 μg/mL,20%
same,inhibition at 1 µg/mL,[1]; 1 μg/mL,0.6%
same,inhibition at 5 µg/mL,[1]; 5 μg/mL,20%
